From PubChem BioAssay AID1963862 (Molecular Pharmacology Branch, DTP, NCI, 2024)

Test system: KRAS patient-derived spheroids with HUVEC/MSC, viability
Assay: Anticancer human tumor 941728-121-R-J1-PDC patient-derived lung adenocarcinoma cell line growth inhibition [KRAS2]
Conditions: for IC50: curve of first compound; for viability, T/C: stronger effect = lower value
Method in brief: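 Combination screen of spheroid viability in tumor-cell co-cultures with endothelial (HUVEC) and mesenchymal stem cell stroma. Each agent was tested in half-log dilutions, topping at clinical Cmax or at 10 microM without a known Cmax.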

[1] = second compound 0.1 µM, first compound 0.0316 µM
[2] = second compound 0.1 µM, first compound 0.1 µM
[3] = second compound 0.1 µM, first compound 0.316 µM
[4] = second compound 0.1 µM, first compound 1 µM
[5] = second compound 0.1 µM, first compound 3.16 µM
[6] = second compound 0.1 µM, first compound 10 µM
[7] = second compound 0.316 µM, first compound 0.0316 µM
[8] = second compound 0.316 µM, first compound 0.1 µM
[9] = second compound 0.316 µM, first compound 0.316 µM
[10] = second compound 0.316 µM, first compound 1 µM
[11] = second compound 0.316 µM, first compound 3.16 µM
[12] = second compound 0.316 µM, first compound 10 µM
[13] = second compound 1 µM, first compound 0.0316 µM
[14] = second compound 1 µM, first compound 0.1 µM
[15] = second compound 1 µM, first compound 0.316 µM
[16] = second compound 1 µM, first compound 1 µM
[17] = second compound 1 µM, first compound 3.16 µM
[18] = second compound 1 µM, first compound 10 µM
[19] = second compound 3.16 µM, first compound 0.0316 µM
[20] = second compound 3.16 µM, first compound 0.1 µM
[21] = second compound 3.16 µM, first compound 0.316 µM
[22] = second compound 3.16 µM, first compound 1 µM
[23] = second compound 3.16 µM, first compound 3.16 µM
[24] = second compound 3.16 µM, first compound 10 µM
[25] = second compound 10 µM, first compound 0.0316 µM
[26] = second compound 10 µM, first compound 0.1 µM
[27] = second compound 10 µM, first compound 0.316 µM
[28] = second compound 10 µM, first compound 1 µM
[29] = second compound 10 µM, first compound 3.16 µM
[30] = second compound 10 µM, first compound 10 µM
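Note: spheroids exposed to agents for seven days before readout.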

SMILES	IC50 (second compound 0.1 µM) [nM]	IC50 (second compound 0.316 µM) [nM]	IC50 (second compound 1 µM) [nM]	IC50 (second compound 3.16 µM) [nM]	viability, T/C [1] [%]	viability, T/C [2] [%]	viability, T/C [3] [%]	viability, T/C [4] [%]	viability, T/C [5] [%]	viability, T/C [6] [%]	viability, T/C [7] [%]	viability, T/C [8] [%]	viability, T/C [9] [%]	viability, T/C [10] [%]	viability, T/C [11] [%]	viability, T/C [12] [%]	viability, T/C [13] [%]	viability, T/C [14] [%]	viability, T/C [15] [%]	viability, T/C [16] [%]	also measured
COc1cc2nccc(Oc3ccc(NC(=O)C4(C(=O)Nc5ccc(F)cc5)CC4)cc3)c2cc1OC + C=CC(=O)N1CCN(c2nc(=O)n(-c3c(C)ccnc3C(C)C)c3nc(-c4c(O)cccc4F)c(F)cc23)C(C)C1	< 31.6	< 31.6	< 31.6	< 31.6	14.6	14.5	12.8	11.6	7.75	8.03	15	15.7	11.6	11.6	6.81	8.86	17.4	16.8	14.5	12.3	IC50 (second compound 10 µM): < 31.6 nM; viability, T/C [17]: 6.93%; viability, T/C [18]: 8.12%; viability, T/C [19]: 17.6%; viability, T/C [20]: 16.4%; viability, T/C [21]: 15.3%; viability, T/C [22]: 16.7%; viability, T/C [23]: 7.9%; viability, T/C [24]: 8.84%; viability, T/C [25]: 19.1%; viability, T/C [26]: 19.5%; viability, T/C [27]: 15.3%; viability, T/C [28]: 13%; viability, T/C [29]: 8.1%; viability, T/C [30]: 9.93%
O=C(c1cc(Cc2n[nH]c(=O)c3ccccc23)ccc1F)N1CCN(C(=O)C2CC2)CC1 + C=CC(=O)N1CCN(c2nc(=O)n(-c3c(C)ccnc3C(C)C)c3nc(-c4c(O)cccc4F)c(F)cc23)C(C)C1	< 31.6	< 31.6	< 31.6	< 31.6	29.5	24.6	21.9	19.5	21.1	23.8	28.2	33.6	24.4	19.8	24.2	25.2	34.2	34.4	33.8	29.3	IC50 (second compound 10 µM): < 31.6 nM; viability, T/C [17]: 24.7%; viability, T/C [18]: 26.7%; viability, T/C [19]: 35.2%; viability, T/C [20]: 34.2%; viability, T/C [21]: 36%; viability, T/C [22]: 30.9%; viability, T/C [23]: 34.6%; viability, T/C [24]: 35.3%; viability, T/C [25]: 39.3%; viability, T/C [26]: 43.3%; viability, T/C [27]: 42.1%; viability, T/C [28]: 43.2%; viability, T/C [29]: 45%; viability, T/C [30]: 48.2%
CC(C)NCC(C(=O)N1CCN(c2ncnc3c2C(C)CC3O)CC1)c1ccc(Cl)cc1 (stereo not given) + C=CC(=O)N1CCN(c2nc(=O)n(-c3c(C)ccnc3C(C)C)c3nc(-c4c(O)cccc4F)c(F)cc23)C(C)C1	< 31.6	< 31.6	< 31.6	< 31.6	19.7	20.1	19.6	15.3	9.91	4.14	24.7	19.5	20	15.2	9.83	4.08	22.6	22.4	13.9	16	IC50 (second compound 10 µM): < 31.6 nM; viability, T/C [17]: 12%; viability, T/C [18]: 5.09%; viability, T/C [19]: 24.1%; viability, T/C [20]: 25.8%; viability, T/C [21]: 20.3%; viability, T/C [22]: 16%; viability, T/C [23]: 10.6%; viability, T/C [24]: 4.7%; viability, T/C [25]: 25.9%; viability, T/C [26]: 21.5%; viability, T/C [27]: 18.6%; viability, T/C [28]: 14.9%; viability, T/C [29]: 6.4%; viability, T/C [30]: 4.57%
CC1(C)CCC(CN2CCN(c3ccc(C(=O)NS(=O)(=O)c4ccc(NCC5CCOCC5)c([N+](=O)[O-])c4)c(Oc4cnc5[nH]ccc5c4)c3)CC2)=C(c2ccc(Cl)cc2)C1 + C=CC(=O)N1CCN(c2nc(OCC3CCCN3C)nc3c2CCN(c2cccc4cccc(C)c24)C3)CC1CC#N	< 31.6	< 31.6	< 31.6	< 31.6	26.5	23.7	24.9	25.1	5.88	2.8	25.2	25.5	25	25.8	5.25	3.74	22.6	21.4	21.4	21.4	IC50 (second compound 0.0316 µM): < 31.6 nM; viability, T/C (second compound 0.0316 µM, first compound 0.0316 µM): 26.6%; viability, T/C (second compound 0.0316 µM, first compound 0.1 µM): 26.4%; viability, T/C (second compound 0.0316 µM, first compound 0.316 µM): 26.4%; viability, T/C (second compound 0.0316 µM, first compound 1 µM): 24%; viability, T/C (second compound 0.0316 µM, first compound 3.16 µM): 6%; viability, T/C (second compound 0.0316 µM, first compound 10 µM): 4.38%; viability, T/C [17]: 5.13%; viability, T/C [18]: 1.61%; viability, T/C [19]: 0.12%; viability, T/C [20]: 0.13%; viability, T/C [21]: 0.1%; viability, T/C [22]: 0.09%; viability, T/C [23]: 0.08%; viability, T/C [24]: 0.12%
CC1OCC2(CCN(c3cnc(Sc4ccnc(N)c4Cl)c(N)n3)CC2)C1N (stereo not given) + CNCc1ccccc1-c1csc(C(C)Nc2nc(C)nc3cc(OC)c(OC)cc23)c1	< 31.6	< 31.6	< 31.6	< 31.6	49.5	38.1	38.1	32.5	35.3	34	41	34.7	31.2	28.9	30.2	30.1	37.6	36.6	28.2	26.2	IC50 (second compound 10 µM): < 31.6 nM; viability, T/C [17]: 20.9%; viability, T/C [18]: 17.8%; viability, T/C [19]: 5.49%; viability, T/C [20]: 2.19%; viability, T/C [21]: 2.26%; viability, T/C [22]: 2.13%; viability, T/C [23]: 0.72%; viability, T/C [24]: 0.85%; viability, T/C [25]: 0.11%; viability, T/C [26]: 0.12%; viability, T/C [27]: 0.4%; viability, T/C [28]: 0.22%; viability, T/C [29]: 1.25%; viability, T/C [30]: 0.16%
